Test results from patent publication US6902901B2, “Polypeptides useful for diagnosis of Aspergillus fumigatus and a process of preparing the same” (Council of Scientific and Industrial Research, priority 1998, dated 2005).

Assays:
[1] = tested on: sensitised mast cells of ABPA patients; test: Histamine release from heparinised whole blood incubated with peptides; type: cell-based, human; conditions: 30 min at 37° C.
Description: Whole blood (heparinised) was incubated with the peptides for 30 min at 37° C. in polystyrene plates followed by centrifugation and collection of supernatants. The supernatants were acylated and were assayed for acylated histamine by histamine assay kit (Immunotech International).

[2] = tested on: Peripheral blood lymphocytes (PBL); test: Cytokine analysis of PBMC supernatants incubated with peptides; type: cell-based, human; conditions: PBMC supernatant, 6 days culture with peptide
Description: Peripheral blood lymphocytes (PBL) from healthy donors and aspergillosis patients were fractionated and 2×10^6 cells/well were cultured in presence or absence of synthetic peptides for 6 days in RPMI 1640 medium with 10% autologous serum. The supernatant medium was collected for cytokine analysis and 0.5 mg/ml solution of MTT was added to each well for 30 min. before harvesting cultures with acidified isopropanol. Absorbance was measured at 590 nm.

[3] = tested on: A. fumigatus specific IgE antibodies in sera; test: ELISA of peptide-coated plates with human sera, specific IgE binding
Description: Sera derived from 25 healthy persons and 30 culture proven allergic bronchopulmonary aspergillosis patients were probed with synthetic peptides of the present invention for A. fumigatus specific antibodies. NUNC ELISA plates were coated with 0-1 ug/ml of peptide in carbonate-bicarbonate buffer, 0.01 M, pH 9.6 for 2 h at 37° C. The unreacted sites were blocked with bovine serum albumin in phosphate buffered saline, 0.01 M, pH 7.4. Diluted sera (1:100) of patients or healthy controls was added to the wells and Incubated for 3 h at 37° C. […]

[4] = tested on: mixture of A. fumigatus allergens/antigens and purified 18 kD allergen/antigen; test: Intraperitoneal immunisation of mice with peptide, serum IgG ELISA; type: in vivo, BALB/c mice; conditions: Immunised mice; 300 ug peptide i.p. with Freund's incomplete adjuvant; serum 30 days after immunization
Description: Each synthetic peptide (300 ug/150 ul saline) was emulsified with an equal volume of Freund's incomplete adjuvant and used for intraperitoneal immunisation of 3 BALB/c mice. IgG antibodies in the serum collected from these mice 30 days after immunization bound with mixture of A. fumigatus allergens/antigens and purified 18 kD allergen/antigen in ELISA.

[5] = tested on: A. fumigatus specific IgG antibodies in sera; test: ELISA of peptide-coated plates with human sera, specific IgG binding; conditions: diluted 1:100
Description: Sera derived from 25 healthy persons and 30 culture proven allergic bronchopulmonary aspergillosis patients were probed with synthetic peptides of the present invention for A. fumigatus specific antibodies. NUNC ELISA plates were coated with 0-1 ug/ml of peptide in carbonate-bicarbonate buffer, 0.01 M, pH 9.6 for 2 h at 37° C. The unreacted sites were blocked with bovine serum albumin in phosphate buffered saline, 0.01 M, pH 7.4. Diluted sera (1:100) of patients or healthy controls was added to the wells and Incubated for 3 h at 37° C. Washed plates received anti-human IgG-HRP conjugate for 1.5 h at 37° C. washed plates were then assayed with o-phenylene diamine substrate and read at 492 nm.

Substance: INQQLNPK (listed as Aspergillus fumigatus) [pep 3, 8 aminoacids peptide, aa 6-14 (also printed aa 6-13) of the 18 kD allergen/antigen]
- Histamine released ([1]; Normal whole blood): 65 nM
- Histamine released ([1]; Patient (ABPA) whole blood): 369 nM
- IL-2 [2]: 80 pg/mL
- IL-4 [2]: 92 pg/mL
- IL-6 [2]: 620 pg/mL
- IL-10 [2]: 220 pg/mL
- gamma-IFN [2]: 168 pg/mL
- Absorbance at 490 nm, Specific IgE ([3]; Normal sera): 0.042
- Absorbance at 490 nm, Specific IgE ([3]; Patient sera (ABPA)): 0.256
- Absorbance at 490 nm, specific IgG antibodies in mice [4]: 0.434
- Absorbance at 490 nm, Specific IgG ([5]; Normal sera): 0.011
- Absorbance at 490 nm, Specific IgG ([5]; Patient sera (ABPA)): 0.674

Substance: INQQLNPKTNKWEDK (listed as Aspergillus fumigatus) [pep 4, 15 aminoacids peptide, aa 6-20 of the 18 kD allergen/antigen]
- Histamine released ([1]; Normal whole blood): 58 nM
- Histamine released ([1]; Patient (ABPA) whole blood): 392 nM
- IL-2 [2]: 400 pg/mL
- IL-4 [2]: 28 pg/mL
- IL-6 [2]: 120 pg/mL
- IL-10 [2]: 40 pg/mL
- gamma-IFN [2]: 520 pg/mL
- Absorbance at 490 nm, Specific IgE ([3]; Normal sera): 0.028
- Absorbance at 490 nm, Specific IgE ([3]; Patient sera (ABPA)): 0.235
- Absorbance at 490 nm, specific IgG antibodies in mice [4]: 0.526
- Absorbance at 490 nm, Specific IgG ([5]; Normal sera): 0.006
- Absorbance at 490 nm, Specific IgG ([5]; Patient sera (ABPA)): 0.845

Substance: LNPKTNKWEDK (listed as Aspergillus fumigatus) [pep 2, 11 aminoacids peptide, aa 10-20 of the 18 kD allergen/antigen]
- Histamine released ([1]; Normal whole blood): 82 nM
- Histamine released ([1]; Patient (ABPA) whole blood): 402 nM
- IL-2 [2]: 280 pg/mL
- IL-4 [2]: 48 pg/mL
- IL-6 [2]: 140 pg/mL
- IL-10 [2]: 80 pg/mL
- gamma-IFN [2]: 320 pg/mL
- Absorbance at 490 nm, Specific IgE ([3]; Normal sera): 0.039
- Absorbance at 490 nm, Specific IgE ([3]; Patient sera (ABPA)): 0.473
- Absorbance at 490 nm, specific IgG antibodies in mice [4]: 0.636
- Absorbance at 490 nm, Specific IgG ([5]; Normal sera): 0.09
- Absorbance at 490 nm, Specific IgG ([5]; Patient sera (ABPA)): 0.852

Substance: LNPKTNKWEDKRY [pep 6]
- Histamine released ([1]; Normal whole blood): 62 nM
- Histamine released ([1]; Patient (ABPA) whole blood): 278 nM
- IL-2 [2]: 120 pg/mL
- IL-4 [2]: 62 pg/mL
- IL-6 [2]: 760 pg/mL
- IL-10 [2]: 340 pg/mL
- gamma-IFN [2]: 240 pg/mL
- Absorbance at 490 nm, Specific IgE ([3]; Normal sera): 0.033
- Absorbance at 490 nm, Specific IgE ([3]; Patient sera (ABPA)): 0.145
- Absorbance at 490 nm, specific IgG antibodies in mice [4]: 0.547
- Absorbance at 490 nm, Specific IgG ([5]; Normal sera): 0.004
- Absorbance at 490 nm, Specific IgG ([5]; Patient sera (ABPA)): 0.828

Substance: TNKWEDK [pep 5]
- Histamine released ([1]; Normal whole blood): 43 nM
- Histamine released ([1]; Patient (ABPA) whole blood): 356 nM
- IL-2 [2]: 260 pg/mL
- IL-4 [2]: 24 pg/mL
- IL-6 [2]: 180 pg/mL
- IL-10 [2]: 36 pg/mL
- gamma-IFN [2]: 660 pg/mL
- Absorbance at 490 nm, Specific IgE ([3]; Normal sera): 0.032
- Absorbance at 490 nm, Specific IgE ([3]; Patient sera (ABPA)): 0.208
- Absorbance at 490 nm, specific IgG antibodies in mice [4]: 0.498
- Absorbance at 490 nm, Specific IgG ([5]; Normal sera): 0.012
- Absorbance at 490 nm, Specific IgG ([5]; Patient sera (ABPA)): 0.850
